Data: ChEMBL document CHEMBL4052606, “The Bengamides: A Mini-Review of Natural Sources, Analogues, Biological Properties, Biosynthetic Origins, and Future Prospects” (J Nat Prod, 2017)

Legend:
MDA-MB-435 [1] = test: Cytotoxicity against human MDA-MB-435 cells; format: functional, cell-based
MDA-MB-435 [2] = test: Cytotoxicity against human MDA-MB-435 cells assessed as reduction in cell viability after 72 hrs by MTS assay; conditions: MDA-MB-435, 72 h
A549 = test: Antiproliferative activity against human A549 cells after 96 hrs; conditions: A549, 96 h
HCT-116 = test: cells; conditions: Homo sapiens, HCT-116, 96 h
Description: Antiproliferative activity against human HCT116 cells after 96 hrs

[3] = target: Methionine aminopeptidase 2 (Homo sapiens, UniProt P50579); test: Inhibition of human MetAP2
Chain of Methionine aminopeptidase 2 (P50579 whole entry): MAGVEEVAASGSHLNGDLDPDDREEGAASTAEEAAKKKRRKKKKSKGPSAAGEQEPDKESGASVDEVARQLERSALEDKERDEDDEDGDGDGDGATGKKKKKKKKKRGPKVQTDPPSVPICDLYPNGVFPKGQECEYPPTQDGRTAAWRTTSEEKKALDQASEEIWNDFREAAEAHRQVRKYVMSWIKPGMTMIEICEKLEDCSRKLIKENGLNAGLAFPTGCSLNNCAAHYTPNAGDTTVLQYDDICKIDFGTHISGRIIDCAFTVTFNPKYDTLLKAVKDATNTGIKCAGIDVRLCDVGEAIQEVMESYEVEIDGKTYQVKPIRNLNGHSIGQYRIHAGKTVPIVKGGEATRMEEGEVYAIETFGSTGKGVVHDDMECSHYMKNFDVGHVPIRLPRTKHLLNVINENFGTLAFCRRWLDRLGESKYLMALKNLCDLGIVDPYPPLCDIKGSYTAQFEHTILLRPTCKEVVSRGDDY

HT-1080 = test: Cytotoxicity against human HT1080 cells
MDA-MB-435 [4] = test: Cytotoxicity against human MDA-MB-435 cells assessed as reduction in cell viability after 24 hrs by MTT assay; format: functional, cell-based; conditions: MDA-MB-435, 24 h
[5] = target: Methionine aminopeptidase 1 (Homo sapiens, UniProt P53582); test: Inhibition of human MetAP1
MDA-MB-231 = test: Cytotoxicity against human MDA-MB-231 cells; format: functional, cell-based

| Structure (SMILES) | IC50 (MDA-MB-435 [1]) [nM] | IC50 (MDA-MB-435 [2]) [nM] | IC50 (HCT-116) [nM] | also measured |
| --- | --- | --- | --- | --- |
| CO[C@H](C(=O)N[C@H]1CCCCNC1=O)[C@@H](O)[C@H](O)[C@@H](O)/C=C/C(C)C | 4 |  |  |  |
| CC(C)/C=C/[C@@H](O)[C@H](O)[C@@H](O)[C@@H](O)C(=O)N[C@H]1CCCCNC1=O |  | 12000 |  |  |
| CO[C@@H](C(=O)N[C@H]1CCc2ccccc2NC1=O)[C@H](O)[C@@H](O)[C@H](O)/C=C/C(C)(C)C |  | 3.8 | 44 | IC50 (A549): 9 nM |
| CO[C@@H](C(=O)N[C@H]1CCCCNC1=O)[C@H](O)[C@@H](O)[C@H](O)/C=C/C1CCCC1 | 0.4 |  |  |  |
| CC(C)(C)OC(=O)Nc1cccnc1C(=O)Nc1nccs1 |  |  |  | IC50 [3]: > 300000 nM; IC50 (HT-1080): 300 nM |
| CO[C@@H](C(=O)N[C@@H](C)C(=O)NCCOC(=O)C1CCCCC1)[C@H](O)[C@@H](O)[C@H](O)/C=C/C(C)(C)C |  |  |  | IC50 (MDA-MB-435 [4]): 4 nM |
| CO[C@@H](C(=O)N[C@H]1CCCCNC1=O)[C@H](O)[C@@H](O)[C@H](O)/C=C/C(C)C [BENGAMIDE E] | 3.8 | 4 to 7 | 3.8 to 600 |  |
| CO[C@H](C(=O)N[C@@H]1CCCCNC1=O)[C@@H](O)[C@H](O)[C@@H](O)/C=C/C(C)C |  |  | > 50000 |  |
| CCCCCCCCCCCCCC(=O)O[C@H]1CC[C@H](NC(=O)[C@H](OC)[C@H](O)[C@@H](O)[C@H](O)/C=C/C(C)C)C(=O)N(C)C1 [BENGAMIDE B] |  | 2 |  |  |
| COc1ccc(N2CCN(c3nc(-c4ccccn4)nc4ccccc34)CC2)cc1 |  |  |  | IC50 [3]: > 100000 nM |
| CO[C@@H](C(=O)N[C@H]1CC[C@@H](OC(=O)C2CCCCC2)CNC1=O)[C@H](O)[C@@H](O)[C@H](O)/C(C)=C/C(C)(C)C |  |  | 140 | IC50 [5]: > 10000 nM |
| CO[C@@H](C(=O)N[C@H]1CCCCNC1=O)[C@H](O)[C@@H](O)[C@H](O)/C=C\C(C)C | 14 |  |  |  |
| CO[C@H]1[C@@H](OC(=O)/C=C/C=C/C=C/C=C/C(=O)O)CC[C@]2(CO2)[C@@H]1[C@@]1(C)O[C@@H]1CC=C(C)C |  |  |  | IC50 (MDA-MB-231): 54 nM; IC50 [3]: 200 nM |
| CCCCCCCCCCCCCC(=O)O[C@H]1CC[C@H](NC(=O)[C@H](OC)[C@H](O)[C@@H](O)[C@H](O)/C=C/C(C)C)C(=O)NC1 [BENGAMIDE A] |  | 1 | 0.4 to 16 |  |
| CO[C@@H](C(=O)N[C@H]1CC[C@@H](OC(=O)C2CCCCC2)CNC1=O)[C@H](O)[C@@H](O)[C@H](O)/C=C/C(C)(C)C |  | 40 | 23 to 40 | IC50 (A549): 13 nM |
| CO[C@@H](C(=O)N[C@H]1CC[C@H](O)CN(C)C1=O)[C@H](O)[C@@H](O)[C@H](O)/C=C/C(C)C [BENGAMIDE F] |  | 3 |  |  |
| CO[C@@H](C(=O)N[C@H]1CCCCN(CCOC(=O)C2CCCCC2)C1=O)[C@H](O)[C@@H](O)[C@H](O)/C=C/C(C)(C)C | 17 |  |  |  |
| CNC(=O)[C@H](CC(C)C)NC(=O)[C@H](OC)[C@H](O)[C@@H](O)[C@H](O)/C=C/C(C)(C)C | 20000 |  |  |  |
| CCCCCCCCCCCCCC(=O)OCCC[C@H](NC(=O)[C@H](OC)[C@H](O)[C@@H](O)[C@H](O)/C=C/C(C)(C)C)C(=O)NC | 190 |  |  |  |
| CO[C@@H](C(=O)N[C@H]1CC[C@H](OC(=O)CCCCCCCCCCC(C)C)CN(C)C1=O)[C@H](O)[C@@H](O)[C@H](O)/C=C/C(C)C |  |  |  | IC50 [3]: > 50000 nM |
